Series [1] concerns cADPR-sensitive Ca^+2 release. The series can be described thus: cADPR-induced Ca2+ release from L. pictus egg homogenates, Fluo 3. It is filed as biochemical, Lytechinus pictus.
The subject of series [2] is caffeine induced Ca^+2 release. Description: Caffeine induced Ca2+ release and its potentiation by cADPR, S. purpuratus homogenates. It is filed as biochemical, Strongylocentrotus purpuratus. On the procedure: FIG. 7 Inhibition of the potentiating effect of cADPR on caffeine induced Ca^+2 release. Ca^+2 release from S. purpuratus homogenates (1.25%) was measured using Fluo 3 as Ca^+2 indicator. (a) In the absence of cADPR, addition of 1 mM caffeine induced no Ca^+2 release (curve labeled 0). The presence of 20 nM cADPR (arrow labeled cADPR) greatly potentiated the Ca^+2 releasing activity of 1 mM caffeine (curve labeled 20).
(§1) Homogenates from Strongylocentrotus purpuratus eggs were prepared as previously described (Lee, H. C. (1991) J. Biol. Chem. 266, 2276-2281, Lee, H. C. (1993) J. Biol. Chem. 268, 293-299). Briefly, eggs were washed once in artificial sea water, twice in Ca^+2 -free sea water containing 1 mM EGTA, twice in Ca^+2 -free sea water without EGTA, once with the homogenization buffer (GluIAG MPM) containing 250 mM N-methylglucamine, 250 mM potassium gluconate, 20 mM HEPES, and 1 mM MgCl2; pH titrated to 7.2 with acetic acid and resuspended with the same medium to 25% (v/v). The following additions were made: 10 μg/ml of leupeptin, 10 μg/ml of aprotinin, 50 μg/ml of soybean trypsin inhibitor, 2 units/ml of creatine kinase, 4 mM phosphocreatine and 0.5 mM ATP. The suspension was chilled on ice for 10-15 min and transferred to a beaker inside a cell disruption bomb (Parr Instrument Co., Ill.). The suspension was mixed continuously with a magnetic stirring bar while nitrogen pressure of 80 psi was applied for 10-30 seconds. The sudden decompression of the suspension as it was released from the bomb effectively homogenized the eggs. The homogenates were centrifuged for 12-14 seconds (13,000×g, 4° C.) in a microfuge (Fisher) and the supernatant was collected and stored frozen at -70 ° C. until use.
(§2) Frozen egg homogenates prepared as described above were thawed in a 17° C. water bath for 20-30 min and then diluted to 5% with the homogenization medium (GLuIM) containing 2 units/ml of creatine kinase, 4 mM phosphocreatine and 0.5 mM ATP. After incubating at 17° C. for one hour the homogenates were diluted sequentially to 2.5% and finally to 1.25% with the same medium. Following each dilution, the homogenates were incubated at 17° C. for one hour. After the last dilution, fluo 3 was added to a final concentration of 3 μM. Fluorescence was measured at 490 nm excitation and 535 nm emission using a Hitachi spectrofluorimeter (F-2000). Fluo 3 fluorescence intensity is directly related to the Ca^+2 concentration (Dargie, P. J., Agre, M. C., and Lee, Hon. C. (1990) Cell Regulation 1,279-290). In some Figures the Fluo 3 fluorescence intensity was calibrated with the addition of known amounts of Ca^ +2. All assays were done in a curvette maintained at 17° C. with a circulating water bath and its content continuously mixed with a magnetic stirring bar. The volume of homogenate used for each assay was 0.2 ml.

Series [3] deals with Ca^+2 release induced by ryanodine. The series can be described thus: Ryanodine induced Ca2+ release, S. purpuratus homogenates. It is filed as biochemical, Strongylocentrotus purpuratus. On the procedure: FIG. 8 Inability of 8-amino-cADPR to block Ca^+2 release induced by ryanodine. Ca^+2 release from S. purpuratus homogenates (1.25%) was measured using Fluo 3 as Ca^+2 indicator. Ryanodine and 8-amino-cADPR(8-NH2) were added to the final concentrations as indicated;
as §1, with “The homogenates were centrifuged for 12-14 seconds (13,000×g, 4° C.) in a microfuge (Fisher) and the supernatant was collected and stored frozen at -70 ° C. until use.” left out
(§3) Frozen egg homogenates prepared as described above were thawed in a 17° C. water bath for 20-30 min and then diluted to 5% with the homogenization medium (GLuIM) containing 2 units/ml of creatine kinase, 4 mM phosphocreatine and 0.5 mM ATP. […] Fluorescence was measured at 490 nm excitation and 535 nm emission using a Hitachi spectrofluorimeter (F-2000). Fluo 3 fluorescence intensity is directly related to the Ca^+2 concentration (Dargie, P. J., Agre, M. C., and Lee, Hon. C. (1990) Cell Regulation 1,279-290). In some Figures the Fluo 3 fluorescence intensity was calibrated with the addition of known amounts of Ca^ +2. […]

For series [4], the system named is cADPR-sensitive Ca^+2 release. The series can be described thus: cADPR-induced Ca2+ release from S. purpuratus egg homogenates, Fluo 3 as Ca2+ indicator. The series is classed as biochemical, Strongylocentrotus purpuratus. The method, then: FIG. 2 Inhibition of cADPR induced Ca^+2 release by 8-amino-cADPR Ca^+2 release from S. purpuratus homogenates (1.25%) was monitored using Fluo 3 as Ca^+2 indicator. (a) The effect of varying the concentration of cADPR on Ca^+2 release. (b) The inhibition of Ca^+2 release induced by 135 nM of cADPR by pre-treatment of the homogenates with 100 nM 8-amino-cADPR.
FIG. 3 Competitive inhibition of cADPR dependent Ca^+2 release by 8-amino-cADPR. Ca^+2 release from S. purpuratus homogenates (1.25%) induced by various concentrations of cADPR was measured in the presence and absence of 100 nM 8-amino-cADPR (8-amino-cADPR);
FIG. 5 Effectiveness of 8-amino-cADPR in blocking Ca^+2 release induced by cADPR. (a) Ca^+2 release from S. purpuratus homogenates (1.25%) induced by the addition of 95 nM cADPR was measured using Fluo 3 as Ca^+2 indicator. (b-d) After the Ca^+2 release had started, increasing amounts of 8-amino-cADPR (8-NH2) were added to give the final concentrations indicated in the Figure;
as §1, §2

The subject of the next series is cADPR binding site. Description: Specific binding of [32P]cADPR to sea urchin egg microsomes (filtration assay). Further details: species or system Lytechinus pictus. On the procedure: FIG. 4 Competitive inhibition of ^32 P-cADPR binding by 8-amino-cADPR and cADPR. Specific binding of ^32 P-cADPR to L. pictus microsomes was measured in the presence of various concentrations of cADPR (filled squares) and 8-amino-cADPR (open squares). Total binding in the presence of a high concentration of cADPR (1.2 μM) was taken as non-specific binding (55 cpm) and was subtracted from all the values;
Specific binding of [^32 P]cADPR to sea urchin egg microsomes was determined by a filtration assay as described previously (Lee, H. C. (1991) J. Biol. Chem. 266, 2276-2281) with some modifications. L. pictus egg homogenates (1 ml) were dialyzed overnight against 1 liter of the homogenization buffer (GluIM listed above). After dialysis, the homogenates were centrifuged for 30 min in a microfuge and the supernatant containing microsomes was collected and diluted 20 fold with GluIM. About 40,000 cpm of [^32 P]cADPR (400 Ci/mmol) and various concentrations of either cADPR or 8-substituted analogs were incubated with the 20 fold diluted microsomes for 10 min at 4° C. in a volume of 0.1 ml. […] The filters were then washed with 4 ml of 10 % polyethylene glycol and the radioactivity on the filters was determined by liquid scintillation counting. […] The specific binding was determined as the total binding minus the binding in the presence of 1.2 μM of unlabeled cADPR. […]

The test system of series [5] is Ca^+2 induced Ca^+2 release. The series can be described thus: cADPR potentiation of divalent cation (Ca2+, Sr2+) induced Ca2+ release, S. purpuratus homogenates. It is filed as biochemical, Strongylocentrotus purpuratus. On the procedure:
FIG. 6 Inhibition of the potentiating effect of cADPR on Ca^+2 release induced by divalent cations. […] release from S. purpuratus homogenates (1.25% ) was measured using Fluo 3 as Ca^+2 indicator. (a) Ca^+2 release was induced by 75 nM cADPR in the absence of 8-amino-cADPR (-8-NH2). Prior addition of 50 nM 8-amino-cADPR (+8 NH2) prohibited cADPR (75 nM) from releasing Ca^+2. (b) In the presence of 30 nM cADPR, addition of 0.4 nmol of Ca^+2 (arrow labeled Ca) induced further Ca^+2 release (-8-NH2). Prior addition of 50 nM 8-amino-cADPR blocked cADPR from potentiating the Ca^+2 induced Ca^+2 release (+8-NH2). (c) In the presence of 30 nM cADPR, addition of 2 nmol of Sr^+2 (arrow labeled Sr) induced further Ca^ +2 release (-8-NH2). […]
as §3

The subject of another series is cADPR-sensitive release. The conditions noted are these: pharmacological blockers of CICR; cited from earlier work.
For series [6], the system named is specific microsomal binding site for cADPR. The conditions noted are these: cited from earlier work.

As to `N=c1c2nc(Br)n3c2ncn1[C@@H]1O[C@H](COP(=O)(O)OP(=O)(O)OC[C@H]2O[C@@H]3[C@H](O)[C@@H]2O)[C@@H](O)[C@H]1O` [8-Br-cADPR], in series [1] (40 nM cADPR), the “concentrations required for antagonism, compared with 8-amino-cADPR” value was “required micromolar concentrations”. In addition, the “Ca^+2 release caused by the analog itself” value in series [1] (1 to 3.5 uM, L. pictus homogenates 2.5%) was “did not release”. Besides, in series [1] (prior addition of increasing concentrations, 1 to 3.5 uM), the “blockage of Ca^+2 release induced by 40 nM cADPR” value is “progressive blockage”.
In the case of `N=c1c2nc(N)n3c2ncn1[C@@H]1O[C@H](COP(=O)(O)OP(=O)(O)OC[C@H]2O[C@@H]3[C@H](O)[C@@H]2O)[C@@H](O)[C@H]1O` [8-amino-cADPR], the “block of Ca^+2 release induced by a high concentration of caffeine” value in series [2] (100 nM antagonist, 2.5 mM caffeine, data not shown) is “did not block”. Besides, in series [2] (prior addition of 10 nM antagonist), the “inhibition of cADPR (20 nM) potentiation of caffeine (1 mM) induced Ca^+2 release” value is “substantial inhibition”. The “inhibition of cADPR (20 nM) potentiation of caffeine (1 mM) induced Ca^+2 release” value in series [2] (prior addition of 100 nM antagonist) was “completely blocked”. Further, in series [3] (100 nM antagonist), the “effect of antagonist on the Ca^+2 release activity of ryanodine” value is listed as “slightly stimulated” and the “inhibition of Ca^+2 release induced by ryanodine” value is “did not inhibit”. The “effect on the concentration-response curve of cADPR” value in series [4] (100 nM 8-amino-cADPR present) is recorded as “shifted the concentration-response curve toward higher concentrations of cADPR”. In addition, in series [4] (135 nM cADPR, read-out: concentration of antagonist at which the rate of Ca^+2 release induced by cADPR was reduced by half), the IC50 was ~9 nM. Moreover, the “block of Ca^+2 release induced by cADPR” value in series [4] (150 nM analog added before 135 nM cADPR) is recorded as “virtually complete”. Besides, the “Ca^+2 release caused by the analog itself” value in series [4] (150 nM final concentration, egg homogenates 1.25%) was “did not cause any”. In addition, the “kind of antagonism of cADPR” value in series [4] (inhibition overcome by increasing cADPR) was “reversible antagonist”. Further, the “block of Ca^+2 release induced by 75 nM cADPR” value in series [4] (prior addition of 50 nM antagonist) was “total blockage”. In addition, the “effect on ongoing Ca^+2 release when added after release had commenced” value in series [4] (release activated by 95 nM cADPR, 100 nM antagonist) is on record as “almost total cessation”. Further, the “competition for the [32P]cADPR binding sites” value in the series on cADPR binding site (L. pictus egg microsomes, compared with unlabeled cADPR) is “as effective as cADPR itself”. Moreover, in series [5] (50 nM antagonist added before cADPR), the “stimulated Ca^+2 release after 0.4 nmol Ca^+2 in the presence of 30 nM cADPR” value is on record as “absent”. Besides, the “stimulated Ca^+2 release after Sr^+2 in the presence of 30 nM cADPR” value in series [5] (prior addition of 50 nM antagonist, 2 nmol Sr^+2) is on record as “blocked”.
As to `[N-]=[N+]=Nc1nc2c(=N)n3cnc2n1[C@@H]1O[C@H](COP(=O)(O)OP(=O)(O)OC[C@H]2O[C@@H]3[C@H](O)[C@@H]2O)[C@@H](O)[C@H]1O` [8-azido-cADPR], in series [1] (data not shown), the antagonist potency rank result was “between that of 8-amino-cADPR and 8-Br-cADPR”.
As for `N=c1c2ncn3c2ncn1[C@@H]1O[C@H](COP(=O)(O)OP(=O)(O)OC[C@H]2O[C@@H]3[C@H](O)[C@@H]2O)[C@@H](O)[C@H]1O` [cADPR, Cyclic ADP-ribose, reference compound], the “potentiation of caffeine (1 mM) induced Ca^+2 release” value in series [2] (20 nM cADPR, not sufficient to release Ca^+2 by itself) was “greatly increased the caffeine sensitivity”. Besides, the EC50 in series [4] (in the absence of the analog, read-out: half-maximal concentration for Ca^+2 release) was ~90 nM. In addition, at cADPR binding site (dialyzed L. pictus homogenates, 0-5 C, no ATP, read-out: apparent affinity constant derived from the binding data), the Kd was ~1 nM.
`Cn1c(=O)c2c(ncn2C)n(C)c1=O` [caffeine, reference compound]: the “Ca^+2 release by caffeine alone” value in series [2] (1 mM caffeine, absence of cADPR) is “did not produce any”.
With `CCN(CC)CCOC(=O)c1ccc(N)cc1` [procaine], in the series on cADPR-sensitive release, the “effect on the cADPR-sensitive release” value is “specifically inhibit”.
As for `N.N.N.N.N.N.N.N.N.N.N.N.N.N.[Cl-].[Cl-].[Cl-].[Cl-].[Cl-].[Cl-].[O-2].[O-2].[Ru+3].[Ru+3].[Ru+4]` [ruthenium red], in the series on cADPR-sensitive release, the “effect on the cADPR-sensitive release” value is given as “specifically inhibit”.
Take inositol trisphosphate: the “competition for the specific microsomal binding site for cADPR, relative to cADPR” value in series [6] is reported as “at least a thousand times less effectively than cADPR”.
On to ryanodine [reference compound], for which the “Ca^+2 release on addition to egg homogenates” value in series [3] (ryanodine alone) is given as “concentration-dependent release”.

The record behind these values is patent US5486604A, “Cyclic ADP ribose antagonists” (Regents of the University of Minnesota, priority 1993, dated 1996).
